{
  "source": "patent US20090298073A1",
  "about": "“Kidney Toxicity Biomarkers” (priority 2006, published 2009)",
  "format_in_all_cases": "in vivo, rat",
  "key": {"[1]": {"tested_on": "male rats", "test": "ELISA of urinary Tamm Horsfall protein (THP) in rats treated with kidney toxicants", "details": "urine", "description": "(§1) The biomarkers of the present invention can be measured in blood or urine during testing of a novel therapeutic compound. […] ELISA antibody assays are used to evaluate changes in protein levels.\n(§2) Antibodies were purchased or made and ELISA assays were performed to measure the levels of four Kidney Toxicity Biomarker proteins in urine. The proteins are TFF3; Tarnm Horsfall protein (THP); neutrophil gelatinase-associated lipocalin (NGAL) and albumin."}, "[2]": {"tested_on": "male rats", "test": "ELISA of urinary TFF3 in rats treated with kidney toxicants", "details": "urine", "description": "as §1, §2"}, "[3]": {"tested_on": "male rats", "test": "ELISA of urinary albumin in rats treated with kidney toxicants", "details": "urine", "description": "as §1, §2"}, "[4]": {"tested_on": "male rats", "test": "ELISA of urinary NGAL in rats treated with kidney toxicants", "details": "urine", "description": "as §1, §2"}, "[5]": {"tested_on": "male rats", "test": "Histopathologically-assessed kidney toxicity in rats"}, "[6]": {"details": "gentamicin 20 mg/Kg/Day, Day 15"}, "[7]": {"details": "gentamicin 80 mg/Kg/Day, Day 15"}, "[8]": {"details": "gentamicin 240 mg/Kg/Day, Day 3"}, "[9]": {"details": "gentamicin 240 mg/Kg/Day, Day 9"}, "[10]": {"details": "gentamicin 240 mg/Kg/Day, Day 12"}},
  "data": [
    {"substance": "Gentamicin", "values": [
      {"measurement": "THP", "setting": "[1]; gentamicin 20 mg/Kg/Day, Day 3", "result": 4.1, "unit": "µg/mL"},
      {"measurement": "THP", "setting": "[1]; gentamicin 20 mg/Kg/Day, Day 9", "result": 4.5, "unit": "µg/mL"},
      {"measurement": "THP", "setting": "[1]; [6]", "result": 4.4, "unit": "µg/mL"},
      {"measurement": "THP", "setting": "[1]; gentamicin 80 mg/Kg/Day, Day 3", "result": 3.4, "unit": "µg/mL"},
      {"measurement": "THP", "setting": "[1]; gentamicin 80 mg/Kg/Day, Day 9", "result": 3.1, "unit": "µg/mL"},
      {"measurement": "THP", "setting": "[1]; [7]", "result": 3.9, "unit": "µg/mL"},
      {"measurement": "THP", "setting": "[1]; [8]", "result": 3.2, "unit": "µg/mL"},
      {"measurement": "THP", "setting": "[1]; [9]", "result": 1.3, "unit": "µg/mL"},
      {"measurement": "THP", "setting": "[1]; [10]", "result": 1.9, "unit": "µg/mL"},
      {"measurement": "TFF3", "setting": "[2]; gentamicin 20 mg/Kg/Day, Day 3", "result": 634, "unit": "ng/mL"},
      {"measurement": "TFF3", "setting": "[2]; gentamicin 20 mg/Kg/Day, Day 9", "result": 202, "unit": "ng/mL"},
      {"measurement": "TFF3", "setting": "[2]; [6]", "result": 265, "unit": "ng/mL"},
      {"measurement": "TFF3", "setting": "[2]; gentamicin 80 mg/Kg/Day, Day 3", "result": 280, "unit": "ng/mL"},
      {"measurement": "TFF3", "setting": "[2]; gentamicin 80 mg/Kg/Day, Day 9", "result": 121, "unit": "ng/mL"},
      {"measurement": "TFF3", "setting": "[2]; [7]", "result": 69, "unit": "ng/mL"},
      {"measurement": "TFF3", "setting": "[2]; [8]", "result": 132, "unit": "ng/mL"},
      {"measurement": "TFF3", "setting": "[2]; [9]", "result": 1.3, "unit": "ng/mL"},
      {"measurement": "TFF3", "setting": "[2]; [10]", "result": 29, "unit": "ng/mL"},
      {"measurement": "Albumin", "setting": "[3]; gentamicin 20 mg/Kg/Day, Day 3", "result": 14, "unit": "µg/mL"},
      {"measurement": "Albumin", "setting": "[3]; gentamicin 20 mg/Kg/Day, Day 9", "result": 7, "unit": "µg/mL"},
      {"measurement": "Albumin", "setting": "[3]; [6]", "result": 13, "unit": "µg/mL"},
      {"measurement": "Albumin", "setting": "[3]; gentamicin 80 mg/Kg/Day, Day 3", "result": 221, "unit": "µg/mL"},
      {"measurement": "Albumin", "setting": "[3]; gentamicin 80 mg/Kg/Day, Day 9", "result": 190, "unit": "µg/mL"},
      {"measurement": "Albumin", "setting": "[3]; [7]", "result": 22, "unit": "µg/mL"},
      {"measurement": "Albumin", "setting": "[3]; [8]", "result": 129, "unit": "µg/mL"},
      {"measurement": "Albumin", "setting": "[3]; [9]", "result": 534, "unit": "µg/mL"},
      {"measurement": "Albumin", "setting": "[3]; [10]", "result": 502, "unit": "µg/mL"},
      {"measurement": "NGAL", "setting": "[4]; gentamicin 20 mg/Kg/Day, Day 3", "result": 14, "unit": "µg/mL"},
      {"measurement": "NGAL", "setting": "[4]; gentamicin 20 mg/Kg/Day, Day 9", "result": 15, "unit": "µg/mL"},
      {"measurement": "NGAL", "setting": "[4]; [6]", "result": 15, "unit": "µg/mL"},
      {"measurement": "NGAL", "setting": "[4]; gentamicin 80 mg/Kg/Day, Day 3", "result": 13, "unit": "µg/mL"},
      {"measurement": "NGAL", "setting": "[4]; gentamicin 80 mg/Kg/Day, Day 9", "result": 14, "unit": "µg/mL"},
      {"measurement": "NGAL", "setting": "[4]; [7]", "result": 20, "unit": "µg/mL"},
      {"measurement": "NGAL", "setting": "[4]; [8]", "result": 17, "unit": "µg/mL"},
      {"measurement": "NGAL", "setting": "[4]; [9]", "result": 13, "unit": "µg/mL"},
      {"measurement": "NGAL", "setting": "[4]; [10]", "result": 25, "unit": "µg/mL"},
      {"measurement": "Histopathology Score", "setting": "[5]; [6]", "result": "<1"},
      {"measurement": "Histopathology Score", "setting": "[5]; gentamicin 80 mg/Kg/Day, Day 3", "result": "<1"},
      {"measurement": "Histopathology Score", "setting": "[5]; [7]", "result": 2},
      {"measurement": "Histopathology Score", "setting": "[5]; [8]", "result": "<1"},
      {"measurement": "Histopathology Score", "setting": "[5]; [9]", "result": 4},
      {"measurement": "Histopathology Score", "setting": "[5]; [10]", "result": 5}
    ]}
  ]
}
